We go through one compound from patent US7410983B2 (Fournier Laboratories Ireland Limited, priority 2000, dated 2008).

The structures appear in SMILES notation.

Data set [1] relates to patients with type 2 diabetes. Put plainly: Venous occlusion plethysmography: forearm blood flow response to acetylcholine with co-infusion of L-NMMA. In kind it is in vivo, human. The settings on record: 12 weeks. As to the method: (§1) Male or female patients aged less than 70 years and without severe obesity (Body Mass Index below 35 kg/m^2) were included after a 6 week run-in period if they had Haemoglobin A1c below 9%, total cholesterol below 6.5 mmol/l and either triglyceride above 1.8 mmol/l or HDL cholesterol below 1 mmol/l. The two therapeutic agents alone or in combination were given each as 200 mg once daily. Capsules identical in appearance to each agent but containing placebo were given to maintain the double-blind nature of the study.
(§2) Evaluations of vascular function were carried out by bilateral venous occlusion plethysmography at weeks 0 and 12. […]
(§3) Plethysmography studies were performed during a 5 minute infusion of each agent, diluted in saline and infused at a rate of 1 mL/min into the brachial artery of the non-dominant arm via a thin plastic cannula Each infusion of vasoactive agents was preceded by a period of saline infusion. Bilateral forearm blood flow was measured simultaneously at 15 second intervals for the final two minutes of each 5 minute infusion period employing mercury-in-silastic strain gauges. […] Results were expressed as the area under the curve (AUC) of the percent increase in forearm blood flow ratio (infused arm versus control arm) to account for any systemic effect of these vasoactive drugs. […]

Data set [2] is described as follows: CoQ10 plasma levels after treatment. Format: in vivo, human. To be noted: 12 weeks, 200 mg once daily each. As to the method: as §1
For data set [3], the system named is patients with type 2 diabetes. Put plainly: Venous occlusion plethysmography: forearm blood flow response to intra-brachial sodium nitroprusside. In kind it is in vivo, human. To be noted: 12 weeks. The procedure: as §1, §2, §3
The subject of data set [4] is patients with type 2 diabetes. The experiment in a line: Venous occlusion plethysmography: forearm blood flow response to intra-brachial acetylcholine. In kind it is in vivo, human. To be noted: 12 weeks; for mean change on treatment (Week 12-Week 0) in acetylcholine AUC percent increase in forearm blood flow ratio: single treatment group, 200 mg once daily each agent, ACh 7.5, 15 and 30 μg/min, aspirin pretreatment.
Procedure: Evaluations of vascular function were carried out by bilateral venous occlusion plethysmography at weeks 0 and 12. These consisted of serial measurements of forearm blood flow before and after intra-brachial artery infusion of acetylcholine (ACh 7.5, 15 and 30 μg/min), sodium nitroprusside (SNP 1.5, 3 and 10 μg/min) and N^G-monomethyl-L-arginine (L-NMMA 4 μmol/l). […] Pretreatment with acetylsalicylic acid (aspirin) (650 mg daily taken orally) was given for one week to block prostacyclin and thromboxane generation.
Plethysmography studies were performed during a 5 minute infusion of each agent, diluted in saline and infused at a rate of 1 mL/min into the brachial artery of the non-dominant arm via a thin plastic cannula Each infusion of vasoactive agents was preceded by a period of saline infusion. Bilateral forearm blood flow was measured simultaneously at 15 second intervals for the final two minutes of each 5 minute infusion period employing mercury-in-silastic strain gauges. During measurements hands were excluded from the circulation by inflation of wrist cuffs to 200 mmHg and venous occlusion was obtained by cyclical inflation of upper arm cuffs to 40 mmHg. Results were expressed as the area under the curve (AUC) of the percent increase in forearm blood flow ratio (infused arm versus control arm) to account for any systemic effect of these vasoactive drugs. The AUC provided integration over time of the dose response to the agent used. AUC for percent change in blood flow to ACh was a priori described as the primary efficacy criterion in this trial.
Statistical analyses were performed using 2 by 2 analysis of variance using SPSS package

For data set [5], the system named is patients with type 2 diabetes. The experiment in a line: Lipids, diabetes control and blood pressure in the randomized clinical trial. In kind it is in vivo, human. To be noted: 12 weeks, 200 mg once daily. The procedure:
as §1

For the next data set, the system named is patient. The settings on record: for the patient; cited from earlier work.
Setting [6] is: pooled groups of the 2×2 design: all patients on the agent, with or without the other agent.

Turning to `COC1=C(OC)C(=O)C(C/C=C(\C)CC/C=C(\C)CC/C=C(\C)CC/C=C(\C)CC/C=C(\C)CC/C=C(\C)CC/C=C(\C)CC/C=C(\C)CC/C=C(\C)CCC=C(C)C)=C(C)C1=O` [Q, coenzyme Q10], the “mean change on treatment (Week 12-Week 0) in acetylcholine percent increase in forearm blood flow ratio with co-infusion of L-NMMA, factorial margin (F+ or Q+)” value in data set [1] (setting [6]) was 48% [6% to 90%]. Further, the “mean change on treatment (Week 12-Week 0) in acetylcholine percent increase in forearm blood flow ratio with co-infusion of L-NMMA” value in data set [1] (single treatment group, 200 mg once daily each agent) was −21% [−76% to. The “plasma levels of CoQ10 after treatment, CoQ10 alone versus combination groups” value in data set [2] is given as “did not differ”. Also, the “mean change on treatment (Week 12-week 0) in sodium nitroprusside AUC percent increase in forearm blood flow ratio, factorial margin (F+ or Q+)” value in data set [3] (setting [6]) was found to be 822% [399% to. In data set [3] (single treatment group, 200 mg once daily each agent, SNP 1.5, 3 and 10 μg/min), the “mean change on treatment (Week 12-week 0) in sodium nitroprusside AUC percent increase in forearm blood flow ratio” value was found to be 50% [−641% to. Also, the “mean change on treatment (Week 12-Week 0) in acetylcholine AUC percent increase in forearm blood flow ratio, factorial margin (F+ or Q+)” value in data set [4] (setting [6]) worked out at 206% [119% to. Besides, the “mean change on treatment (Week 12-Week 0) in acetylcholine AUC percent increase in forearm blood flow ratio” value in data set [4] was −7% [−119%; in data set [4] (listed as CoQ10), “no change”. The lipid lowering effects entry in data set [5] is “no lipid lowering effects”. Further, the “dose previously demonstrated to be safe” value in the data set with patient was “up to 300 mg daily”.
